Read-outs that look alike come from different tables or passages of the source.
Experiments:
[1] = test system: Mycosphaerella graminicola; anamorph: Septoria tritici; assay: Fungicidal activity: leaf blotch of wheat (SEPTTR), wheat seedlings; format: in vivo; conditions: Zymoseptoria tritici, 100 ppm, wheat
Protocol: Evaluation of Fungicidal Activity: Leaf Blotch of Wheat (Mycosphaerella Graminicola; Anamorph: Septoria tritici; Bayer Code […]) Technical grades of materials were dissolved in acetone, which were then mixed with nine volumes of water containing 110 ppm Triton X-100. The fungicide solutions were applied onto wheat seedlings using an automated booth sprayer to run-off. All sprayed plants were allowed to air dry prior to further handling. Wheat plants (variety Yuma) were grown from seed in a greenhouse in 50% mineral soil/50% soil-less Metro mix until the first leaf was fully emerged, with 7-10 seedlings per pot. These plants were inoculated with an aqueous spore suspension of Septoria tritici either prior to or after fungicide treatments. After inoculation the plants were kept in 100% relative humidity (one day in a dark dew chamber followed by two to three days in a lighted dew chamber at 20° C.) to permit spores to germinate and infect the leaf. The plants were then transferred to a greenhouse set at 20° C. for disease to develop. When disease symptoms were fully expressed on the 1st leaves of untreated plants, infection levels were assessed on a scale of 0 to 100 percent disease severity. Percent disease control was calculated using the ratio of disease severity on treated plants relative to untreated plants.

[2] = test system: Puccinia triticina; synonym: Puccinia recondita f. sp. tritici; assay: Fungicidal activity: wheat brown rust (PUCCRT), wheat seedlings; format: in vivo; conditions: 100 ppm, wheat
Protocol: Technical grades of materials were dissolved in acetone, which were then mixed with nine volumes of water containing 110 ppm Triton X-100. The fungicide solutions were applied onto wheat seedlings using an automated booth sprayer to run-off. All sprayed plants were allowed to air dry prior to further handling. Wheat plants (variety Yuma) were grown from seed in a greenhouse in 50% mineral soil/50% soil-less Metro mix until the first leaf was fully emerged, with 7-10 seedlings per pot. These plants were inoculated with an aqueous spore suspension of Septoria tritici either prior to or after fungicide treatments. After inoculation the plants were kept in 100% relative humidity (one day in a dark dew chamber followed by two to three days in a lighted dew chamber at 20° C.) to permit spores to germinate and infect the leaf. The plants were then transferred to a greenhouse set at 20° C. for disease to develop. When disease symptoms were fully expressed on the 1st leaves of untreated plants, infection levels were assessed on a scale of 0 to 100 percent disease severity. Percent disease control was calculated using the ratio of disease severity on treated plants relative to untreated plants. Evaluation of Fungicidal Activity: Wheat Brown Rust (Puccinia […]; Synonym: Puccinia recondita f. Sp. Tritici; Bayer Code PUCCRT) Wheat plants (variety Yuma) were grown from seed in a greenhouse in 50% mineral soil/50% soil-less Metro mix until the first leaf was fully emerged, with 7-10 seedlings per pot. These plants were inoculated with an aqueous spore suspension of Puccinia triticina either prior to or after fungicide treatments. After inoculation the plants were kept in a dark dew room at 22° C. with 100% relative humidity overnight to permit spores to germinate and infect the leaf. The plants were then transferred to a greenhouse set at 24° C. for disease to develop. Fungicide formulation, application and disease assessment followed the procedures as described in the Example A.

[3] = 24 h, 1 Day Protectant, read-out: Disease Control SEPTTR 1DP
[4] = 72 h, 3 Day Curative, read-out: Disease Control SEPTTR 3DC
[5] = 24 h, 1 Day Protectant, read-out: Disease Control PUCCRT 1DP
[6] = 72 h, 3 Day Curative, read-out: Disease Control PUCCRT 3DC

In the case of `COc1ccnc(C(=O)N[C@H]2COC[C@H](OC3CCCC3)[C@@H](Oc3ccccc3)[C@H](C)OC2=O)c1O` [Compound 204], the pest or weed control at 100 ppm [1, 3] is reported as 80 to 100%, the pest or weed control at 100 ppm [1, 4] is reported as 80 to 100% and the pest or weed control at 100 ppm [2, 5] is reported as 80 to 100%. For the same molecule, the pest or weed control at 100 ppm [2, 6] was 80 to 100%.
Work on `COc1ccnc(C(=O)N[C@H]2COC[C@H](Oc3ccccc3)[C@@H](OC3CCCC3)[C@H](C)OC2=O)c1O` [Compound 205] yielded a pest or weed control at 100 ppm [1, 3] of 80 to 100%, a pest or weed control at 100 ppm [1, 4] of 80 to 100% and a pest or weed control at 100 ppm [2, 5] of 80 to 100%. It also gave a pest or weed control at 100 ppm [2, 6] of 80 to 100%.
`COc1ccnc(C(=O)N[C@H]2COC[C@H](Oc3ccc(C)cc3)[C@@H](Oc3ccc(C)cc3)[C@H](C)OC2=O)c1O` [Compound 206] gave a pest or weed control at 100 ppm [1, 3] of 80 to 100%, a pest or weed control at 100 ppm [1, 4] of 80 to 100% and a pest or weed control at 100 ppm [2, 5] of 80 to 100%. The pest or weed control at 100 ppm [2, 6] was 80 to 100%.
Work on `COc1ccnc(C(=O)N[C@H]2COC[C@H](Oc3ccc(F)cc3)[C@@H](OCC(C)C)[C@H](C)OC2=O)c1O` [Compound 207] yielded a pest or weed control at 100 ppm [1, 3] of 80 to 100%, a pest or weed control at 100 ppm [1, 4] of 80 to 100% and a pest or weed control at 100 ppm [2, 5] of 80 to 100%. For the same molecule, the pest or weed control at 100 ppm [2, 6] was 80 to 100%.
`COc1ccnc(C(=O)N[C@H]2COC[C@H](Oc3ccc(F)cc3)[C@@H](Oc3ccc(F)cc3)[C@H](C)OC2=O)c1O` [Compound 208] gave a pest or weed control at 100 ppm [1, 3] of 80 to 100%, a pest or weed control at 100 ppm [1, 4] of 0 to 80% and a pest or weed control at 100 ppm [2, 5] of 80 to 100%.
`COc1ccnc(C(=O)N[C@H]2COC[C@H](Oc3ccccc3)[C@@H](O)[C@H](C)OC2=O)c1O` [Compound 211] gave a pest or weed control at 100 ppm [1, 4] of 0 to 80% and a pest or weed control at 100 ppm [2, 5] of 0 to 80%.
`COc1ccnc(C(=O)N[C@H]2COC[C@H](Oc3ccccc3)[C@@H](OCC=C3CCCCC3)[C@H](C)OC2=O)c1O` [Compound 212] was tested, and the pest or weed control at 100 ppm [1, 3] was 80 to 100%, the pest or weed control at 100 ppm [1, 4] was 0 to 80% and the pest or weed control at 100 ppm [2, 5] was 80 to 100%. The pest or weed control at 100 ppm [2, 6] was 0 to 80%.
Work on `CCOCC(=O)OCOc1c(OC)ccnc1C(=O)N[C@H]1COC[C@H](Oc2ccc(OC)cc2)[C@@H](Oc2ccc(OC)cc2)[C@H](C)OC1=O` [Compound 219] yielded a pest or weed control at 100 ppm [1, 3] of 80 to 100%, a pest or weed control at 100 ppm [1, 4] of 0 to 80% and a pest or weed control at 100 ppm [2, 5] of 80 to 100%. For the same molecule, the pest or weed control at 100 ppm [2, 6] was 80 to 100%.
Molecule `COc1ccc(O[C@H]2[C@H](C)OC(=O)[C@@H](NC(=O)c3nccc(OC)c3OCOC(C)=O)COC[C@@H]2Oc2ccc(OC)cc2)cc1` [Compound 220] has a pest or weed control at 100 ppm [1, 3] of 80 to 100%, a pest or weed control at 100 ppm [1, 4] of 80 to 100% and a pest or weed control at 100 ppm [2, 5] of 80 to 100%. For the same molecule, the pest or weed control at 100 ppm [2, 6] was 80 to 100%.
`COc1ccnc(C(=O)N[C@H]2COC[C@H](OC3CCCC3)[C@@H](Oc3ccccc3)[C@H](C)OC2=O)c1OCOC(C)=O` [Compound 223] gave a pest or weed control at 100 ppm [1, 3] of 80 to 100%, a pest or weed control at 100 ppm [1, 4] of 80 to 100% and a pest or weed control at 100 ppm [2, 5] of 80 to 100%. It also gave a pest or weed control at 100 ppm [2, 6] of 80 to 100%.
`COc1ccnc(C(=O)N[C@H]2COC[C@H](Oc3ccccc3)[C@@H](OC3CCCC3)[C@H](C)OC2=O)c1OCOC(C)=O` [Compound 224] gave a pest or weed control at 100 ppm [1, 3] of 80 to 100%, a pest or weed control at 100 ppm [1, 4] of 80 to 100% and a pest or weed control at 100 ppm [2, 5] of 80 to 100%. It also gave a pest or weed control at 100 ppm [2, 6] of 80 to 100%.
For `CCOCC(=O)OCOc1c(OC)ccnc1C(=O)N[C@H]1COC[C@H](Oc2ccc(C)cc2)[C@@H](Oc2ccc(C)cc2)[C@H](C)OC1=O` [Compound 225], the pest or weed control at 100 ppm [1, 3] was 80 to 100%, the pest or weed control at 100 ppm [1, 4] was 80 to 100% and the pest or weed control at 100 ppm [2, 5] was 80 to 100%. For the same molecule, the pest or weed control at 100 ppm [2, 6] was 80 to 100%.
`COc1ccnc(C(=O)N[C@H]2COC[C@H](Oc3ccc(C)cc3)[C@@H](Oc3ccc(C)cc3)[C@H](C)OC2=O)c1OCOC(C)=O` [Compound 226] gave a pest or weed control at 100 ppm [1, 3] of 80 to 100%, a pest or weed control at 100 ppm [1, 4] of 80 to 100% and a pest or weed control at 100 ppm [2, 5] of 80 to 100%. It also gave a pest or weed control at 100 ppm [2, 6] of 80 to 100%.
With `CCOCC(=O)OCOc1c(OC)ccnc1C(=O)N[C@H]1COC[C@H](Oc2ccc(F)cc2)[C@@H](OCC(C)C)[C@H](C)OC1=O` [Compound 227] the pest or weed control at 100 ppm [1, 3] was 80 to 100%, the pest or weed control at 100 ppm [1, 4] was 80 to 100% and the pest or weed control at 100 ppm [2, 5] was 80 to 100%. The pest or weed control at 100 ppm [2, 6] was 80 to 100%.

From US9144239B2, “Macrocyclic picolinamides as fungicides” (DOW AGROSCIENCES LLC, priority 2012, dated 2015)
